According to patent US5304379A, “Method for reducing sensitization or irritation in transdermal drug delivery and means therefor” (priority 1992, dated 1994):

Assays:
[1] = Patch test (elicitation) in a human subject sensitized to propranolol
Protocol: A human subject suspected of being sensitized to propranolol was patch tested for 16 hours with 0.5% propranolol in a 2% hydroxyethyl cellulose (HEC) gel buffered to a pH of 8.5 with 0.05M TrisHC1.
The same subject was patch tested several days later with the following compositions in 2% HEC gel buffered to a pH of 8.5 with 0.05M TrisHC1: 0.5% propranolol; 0.5% tranylcypromine; 10% 2-phenyl-1-ethanol; 0.5% propranolol with 0.5% tranylcypromine; and 0.5% propranolol with 10% 2-phenyl-1-ethanol. Each composition was placed simultaneously at different sites on the subject's volar forearm.

[2] = test system: propranolol metabolism in human keratinocytes; conditions: tritiated propranolol 1.5×10^-7 M, several days, metabolites by TLC, vs control incubation without tranylcypromine
Protocol: At the end of several days, the metabolites resulting from propranolol ,metabolism were identified and quantitated by thin layer chromatography.
Human keratinocytes were incubated in tritiated propranolol (12.5 Ci/mmole, final concentration 1.5×10^-7 M) and a range of concentration of each phenyl alcohol. Quadruplicates were used at each concentration. At six days, the metabolites resulting from propranolol deamination were extracted (ether, pH of 3) and the radioactivity of the extract was measured by scintillation counting. The concentration of each phenyl alcohol studied, which inhibits 50 percent of propranolol metabolism (MI50) was estimated by means of the Litchfield and Wilcoxon method.

[3] = test system: monoamine oxidase-dependent tetracaine metabolism; experiment: In vitro metabolism of tetracaine (methods of the propranolol studies)
[4] = Induction of contact sensitization by patches in groups of 100 human subjects; format: in vivo; conditions: tetracaine/2-phenyl-1-ethanol patches vs tetracaine-only patches, 100 subjects each
Protocol: The components were blended in an internal mixing bowl at 100° C. and after approximately one hour, the mixture was extruded between two release substrates. One substrate was peeled away and a backing member was applied in its place.
Similar patches were manufactured without the presence of 2-phenyl-1-ethanol.
Two groups of 100 human subjects each were then tested. They were each tested by application of a system, for a three hour duration, once every 8 weeks.
100 subjects were given the patches containing only tetracaine. […] The other 100 subjects were given the patches containing both tetracaine and 2-phenyl-1-ethanol.

[5] = Patch test (elicitation) in human subjects sensitized to tetracaine, erythema by Minolta Chromameter; format: in vivo; conditions: 21 hours after removal
Protocol: Testing occurred over a period of several weeks where a positive control composition was placed on the skin along with one of the tetracaine/phenyl alcohol compositions and the intensity of the skin reaction obtained, was observed. This was repeated on different areas of the arm until all of the compositions were tested. Each formulation remained on the skin for a period of three hours and the reactions were observed during the 16-24 hour period after removal of the formulation. Erythema or redness of the reaction site was quantitated with a Minolta Chromameter. In all instances, the intensity of the reaction caused by the tetracaine/phenyl alcohol composition, was less than that caused by tetracaine alone (positive control). Thus it was established that the presence of phenyl alcohols reduced the elicitation reaction as compared to the 2% tetracaine gel.
The best results were obtained using 2-phenyl-1-ethanol and 3-phenyl-1-propanol. On a scale of 0-100, with 0 being 0% inhibition (2% tetracaine gel/positive control) and 100 being 100% inhibition (placebo gel/negative control), the following data was obtained 21 hours after removal of the formulations: […]

[6] = test system: monoamine oxidase activity; format: cell-based
Text: Therefore, the metabolism of chlorpheniramine can also be inhibited in the skin or mucosa, by the addition of metabolic modulators such as the phenyl alcohols disclosed with reference to propranolol.

[7] = 0.5% alone in 2% HEC gel pH 8.5, volar forearm, one day later, propranolol-sensitized subject
[8] = 2.5 weight % inhibitor with 2% tetracaine gel
[9] = 5 weight % inhibitor with 2% tetracaine gel
[10] = 10 weight % inhibitor with 2% tetracaine gel

In the case of `N[C@@H]1C[C@H]1c1ccccc1` (relative stereo) [tranylcypromine], the “skin reaction at patch site” value [1, 7] is reported as “No reaction”, the “inhibition of propranolol metabolism” value [2] is reported as “inhibited” and the “inhibition of monoamine oxidase-dependent tetracaine metabolism” value [3] is reported as “could be inhibited”.
In the case of `OCCc1ccccc1` [2-phenyl-1-ethanol], the “reduction of the incidence of sensitization” value [4] is reported as “about 70%”, the “skin reaction at patch site” value ([1]; human, in vivo, pH 8.5) is reported as “No reaction” and the “Percent Inhibition of Reaction” value [5, 8] is reported as 52%. For the same molecule, the “Percent Inhibition of Reaction” value [5, 9] was 52%, the “Percent Inhibition of Reaction” value [5, 10] was 77% and the “inhibition of monoamine oxidase-dependent tetracaine metabolism” value [3] was “could be inhibited”.
In the case of `OCCCc1ccccc1` [3-Phenyl-1-propanol, 3-phenyl-1-propanol], the “Percent Inhibition of Reaction” value [5, 8] is reported as 37%, the “Percent Inhibition of Reaction” value [5, 9] is reported as 100% and the “Percent Inhibition of Reaction” value [5, 10] is reported as 100%.
For `CN(C)CCC(c1ccc(Cl)cc1)c1ccccn1` (stereo not shown) [chlorpheniramine], the “dependence of in vitro skin metabolism on monoamine oxidase activity” value [6] was “largely dependent upon monoamine oxidase activity”.
For `CC(C)NCC(O)COc1cccc2ccccc12` (stereo not shown) [propranolol], the “skin reaction at patch site” value [1, 7] was “strong reaction” and the “skin reaction after patch test” value ([1]; 0.5% in 2% HEC gel pH 8.5, 16 hours patch, one to two days later) was “a reaction which was characteristic of a contact sensitization reaction”.
In the case of `CCCCNc1ccc(C(=O)OCCN(C)C)cc1` [tetracaine], the “portion of metabolism that is monoamine oxidase-dependent” value [3] is reported as 25%.
